Assay results: EP0555938A1, “Use of phenoxyacetate derivatives for the restoration of neural function” (Albert ROLLAND S.A., priority 1992, dated 1993)

Tests used:
nerf sciatique [1] = assay: Regeneration of the sciatic nerve after exposure to cold (plantar pain perception, Randal et Sellito apparatus); assay type: in vivo, rats Charles RIVER; details: 500 mg/kg P.U/jour
Description: L'étude est menée sur des lots de rats Charles RIVER (100-110 g), anesthésiés au Mébubarbital (30 mg/kg I.P).
Le nerf sciatique droit est isolé et on en pratique la congélation sur une longueur de 3 mm, au niveau du tiers supérieur de la cuisse. Cette congélation est réalisée par applications successives, pendant 30 secondes chacune, de petites masses métalliques adaptées sur un champ d'artère et plongées, préalablement, dans l'azote liquide.
Le traitement par les produits à étudier est pratique à partir du premier jour après l'opération (J₁), jusqu'à J₁₂.
La regénération nerveuse éventuelle est recherchée par la mesure de la perception douloureuse au niveau plantaire des deux pattes postérieures des animaux, en utilisant l'appareil de Randal et Sellito qui permet l'évaluation de la sensibilité locale par application d'un poids progressivement augmenté en fonction du temps.
Les résultats sont exprimés à partir des mesures réalisées sur chaque patte, 4 heures après le dernier traitement. La valeur de la regénération de la sensibilité, donc de la regénération nerveuse, est représentée par la différence de réponse au test de la patte au nerf lésé par rapport à la patte contralatérale intacte.
L'analyse statistique est faite sur les deux séries de valeurs par analyse de Kruskall-Wallis et test U de Mann-Whitney. […]

nerf sciatique [2] = assay: Speed of sensory reinnervation after freezing lesion of the sciatic nerve (latency of somesthetic evoked potential); assay type: in vivo, rat whistar mâle; details: 150 mg/kg, another batch of rats (Fig. 2)
Description: La vitesse de réinnervation sensitive après lésion du nerf sciatique et dégénérescence wallerienne a été étudiée chez le rat whistar mâle de 210 g ± 10 g. Le nerf sciatique droit a été lésé par congélation au moyen d'une cryode à cataracte portée à -170°C pendant 30 secondes en 3 points d'une même circonférence, située au tiers supérieur de la cuisse, à 90 ± 5 mm de la pénétration du nerf dans la région plantaire. Le nerf fémoris interne était excisé sur plusieurs cm. La récupération sensitive a été appréciée en mesurant la latence du potentiel évoqué somesthésique recueilli au niveau de l'aire primaire contralatérale et homolatérale, au moyen d'électrodes métalliques extra-durémériennes scéllées et laissées à demeure. La réponse était évoquée en stimulant le coussinet le plus interne de la sole plantaire droite au moyen d'un choc électrique de 5 mA délivré à courant constant pendant 2 ms toutes les 620 ms. Les réponses étaient moyennées de 500 à 2.000 fois et leurs latences mesurées avec une précision de ± 0,5 ms.
La latence de la réponse positive (P1) la plus précoce et à seuil le plus bas, a été mesurée et comparée chez trois groupes d'animaux aux jours J +25, +29, +33, +38, +43. Le groupe de témoins (n=11) a reçu par gavage 6 jours sur 7, 0,5 g/kg de gomme arabique. […]

Row | SMILES | réactivité (perception douloureuse au niveau plantaire, patte lésée vs patte contralatérale) (nerf sciatique [1]; sixth day after operation, oral, in water) | amélioration de la réactivité (regénération de la sensibilité) (nerf sciatique [1]; twelfth day after operation, 4 h after last treatment, oral (plate no. 3)) | modification dans la regénération des fibres nerveuses (nerf sciatique [2])
1 | CN(C)CCOC(=O)COc1ccc(Cl)cc1 [Méclofénoxate] | tendance à une meilleure réactivité | l'amélioration est significative | 
2 | CC(C)Nc1ncccn1 [isaxonine] |  |  | aucune modification sensible
